Measurements reported in paper PMC4594923, “Food Polyphenols Fail to Cause a Biologically Relevant Reduction of COX-2 Activity” (PLoS ONE, 2015).
Marks after values point to notes of the source that are not given here.

Experiments:
[1] = test system: arachidonic acid (AA) cascade; test: liver tissue oxylipin/PG levels in LPS induced sepsis in mice; type: in vivo, C57BL/6N mice; settings: liver tissue 24 h after LPS treatment;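 further: male C57BL/6N mice pretreated i.p. with polyphenols at 100 mg/kg bw or vehicle before LPS, liver oxylipins measured by LC-MS after solid-phase extraction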
Description: (§1) Twelve week old male C57BL/6N mice (Charles River, Sulzfeld, Germany) were used for all experiments. C57BL/6 male mice (H2^b, 11–13 weeks of age) were obtained from Charles River (Sulzfeld, Germany). Animals were cared for in accordance with the institution’s guidelines for experimental animals and with the guidelines of the American Physiological Society. […] Mice were monitored closely and if they appeared compromised (i.e. inactivity, no intake of food or water) after compound or LPS injection the experiment was terminated.
(§2) Oxylipin levels were analyzed in plasma and tissues by LC-MS following SPE extraction of 200 μl plasma or tissue homogenate (50 mg) on Chromabond C18 ec cartridges (Machery-Nagel, Düren, Germany) [19].
(§3) GraphPad Prism 5.0 (GraphPad Software, San Diego, USA) was used for data analysis, the fitting of dose response curves and calculation of the IC50 values. Statistical differences were determined by Dunnetts test (LPS vs. other groups).

[2] = test system: arachidonic acid (AA) cascade; test: kidney tissue oxylipin/PG levels in LPS induced sepsis in mice; settings: kidney tissue 24 h after LPS treatment, LPS +, mean;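 further: male C57BL/6N mice challenged with LPS, kidney taken 24 h later, oxylipins quantified by LC-MS after solid-phase extraction of tissue homogenate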
Description: as §1, §2, §3

## O=c1c(-c2ccc(O)cc2)coc2cc(O)cc(O)c12 [Genistein, genistein]
[1]; mean
  4,5-DiHDPE concentration: 64 nM
  4-HDHA concentration: 14 nM
  5(6)-EpETrE concentration: 90 nM
  5,6-DiHETE concentration: < 0.30 nM
  5,6-DiHETrE concentration: 6.3 nM
  5-HEPE concentration: 2.7 nM
  5-HETE concentration: 2.7 nM
  5-iPF2α concentration: < 1.0 nM
  5-oxo-ETE concentration: 19 nM
  6-keto-PGF1α concentration: 74 nM
  7,8-DiHDPE concentration: 6.3 nM
  7-HDHA concentration: 4.4 nM
  8(9)-EpETE concentration: 2.5 nM
  8(9)-EpETrE concentration: 20 nM
  8,9-DiHETE concentration: 2.6 nM
  8,9-DiHETrE concentration: 12 nM
  8,15-DiHETE concentration: 0.88 nM
  8-HDHA concentration: 25^* nM
  8-HEPE concentration: 1.2 nM
  8-HETE concentration: 10 nM
  8-iPF2α concentration: 3.0^* nM
  9(10)-EpODE concentration: 12 nM
  9(10)-EpOME concentration: 130 nM
  9(10)-Epoxystearic acid concentration: 82 nM
  9,10,13-TriHOME concentration: 8.6^* nM
  9,10-DiHODE concentration: 7.6 nM
  9,10-DiHOME concentration: 82 nM
  9,10-Dihydroxystearic acid concentration: 64 nM
  9,12,13-TriHOME concentration: 64 nM
  9-HETE concentration: 6.2 nM
  9-HODE concentration: 550 nM
  9-HOTrE concentration: 9.9 nM
  9-oxo-ODE concentration: 160 nM
  10(11)-EpDPE concentration: 33^* nM
  10,11-DiHDPE concentration: 11 nM
  10-HDHA concentration: 7.6 nM
  11(12)-EpETE concentration: 5.1^† nM
  11(12)-EpETrE concentration: 51 nM
  11,12-DiHETE concentration: 2.9 nM
  11,12-DiHETrE concentration: 22 nM
  11-HDHA concentration: 7.0 nM
  11-HETE concentration: 35 nM
  12(13)-EpODE concentration: 5.7 nM
  12(13)-EpOME concentration: 110 nM
  12,13-DiHODE concentration: 5.7 nM
  12,13-DiHOME concentration: 210 nM
  12-HEPE concentration: 39 nM
  12-HETE concentration: 150 nM
  13(14)-EpDPE concentration: 27^* nM
  13,14-DiHDPE concentration: 15 nM
  13,14-dihydro-15-keto-PGE1 concentration: 0.61 nM
  13,14-dihydro-15-keto-PGF2α concentration: 8.2^* nM
  13-HDHA concentration: 16^† nM
  13-HODE concentration: 530 nM
  13-HOTrE concentration: 18 nM
  13-oxo-ODE concentration: 20 nM
  14(15)-EpETE concentration: 3.3 nM
  14(15)-EpETrE concentration: 44^* nM
  14,15-DiHETE concentration: 8.6 nM
  14,15-DiHETrE concentration: 62 nM
  14-HDHA concentration: 97 nM
  15(16)-EpODE concentration: 27 nM
  15(S)-HETrE concentration: 14 nM
  15,16-DiHODE concentration: 63 nM
  15-HEPE concentration: 4.0 nM
  15-HETE concentration: 40 nM
  15-oxo-ETE concentration: 5.8 nM
  16(17)-EpDPE concentration: 27^* nM
  16,17-DiHDPE concentration: 35 nM
  16-HDHA concentration: 8.1^* nM
  17(18)-EpETE concentration: 4.6 nM
  17,18-DiHETE concentration: 19 nM
  17-HDHA concentration: 25 nM
  18-HEPE concentration: 4.6 nM
  19(20)-EpDPE concentration: 40^* nM
  19,20-DiHDPE concentration: 170 nM
  20-HDHA concentration: 27^* nM
  20-HEPE concentration: 22 nM
  20-HETE concentration: 6.3 nM
  EKODE concentration: 40 nM
  PGD1 concentration: 2.3 nM
  PGD2 concentration: 42 nM
  PGE1 concentration: 3.7 nM
  PGE2 concentration: 21 nM
  PGF1α concentration: 6.9 nM
  TXB2 concentration: 31 nM
  TxB3 concentration: 1.2 nM
  dihomo-PGF2α concentration: 5.3 nM
[1]; mean (first listing, r6)
  PGF2α concentration: 57 nM
[1]; mean (second listing, r9)
  PGF2α concentration: 57 nM
[2]
  1a,1b-dihomo-PGF2α: 1.9 nM
  4,5-DiHDPE: 15 nM
  4-HDHA: 28^† nM
  5(6)-EpETrE: 140^† nM
  5,6-DiHETrE: 1.8^† nM
  5-HEPE: 1.3 nM
  5-HETE: 15^† nM
  5-oxo-ETE: 45 nM
  6-keto-PGF1α: 61 nM
  7,8-DiHDPE: 2.0^* nM
  7-HDHA: 4.0^* nM
  8(9)-EpETrE: 34^‡ nM
  8,9-DiHETrE: 1.9 nM
  8-HDHA: 23^‡ nM
  8-HETE: 4.9 nM
  8-iPF2a: 2.0 nM
  9(10)-EpODE: 14 nM
  9(10)-EpOME: 170^* nM
  9(10)-Epoxystearic acid: 75^* nM
  9,10,13-TriHOME: 4.3 nM
  9,10-DiHODE: 1.6 nM
  9,10-DiHOME: 31 nM
  9,10-Dihydroxystearic acid: 50 nM
  9,12,13-TriHOME: 24 nM
  9-HETE: 4.3^† nM
  9-HODE: 280 nM
  9-HOTrE: 5.0 nM
  9-oxo-ODE: 65 nM
  10(11)-EpDPE: 71^† nM
  10,11-DiHDPE: 2.4 nM
  10-HDHA: 4.3 nM
  11(12)-EpETE: 4.0 nM
  11(12)-EpETrE: 82^† nM
  11,12-DiHETrE: 2.8 nM
  11-HDHA: 7.7^† nM
  11-HETE: 18 nM
  12(13)-EpODE: 8.1^* nM
  12(13)-EpOME: 120^* nM
  12,13-DiHOME: 78 nM
  12-HEPE: 2.2 nM
  12-HETE: 21 nM
  13(14)-EpDPE: 56^† nM
  13,14-DiHDPE: 5.0 nM
  13,14-dihydro-15-keto-PGF2α: 3.1 nM
  13-HDHA: 9.1^* nM
  13-HODE: 230 nM
  13-HOTrE: 6.0 nM
  13-oxo-ODE: 11 nM
  14(15)-EpETE: 4.7^† nM
  14(15)-EpETrE: 57^* nM
  14,15-DiHETE: 1.1 nM
  14,15-DiHETrE: 8.5 nM
  14-HDHA: 14 nM
  15(16)-EpODE: 56^† nM
  15(S)-HETrE: 6.4 nM
  15,16-DiHODE: 26 nM
  15-HETE: 31^* nM
  15-oxo-ETE: 12^* nM
  16(17)-EpDPE: 52^† nM
  16,17-DiHDPE: 15 nM
  16-HDHA: 9.1 nM
  17(18)-EpETE: 5.7^† nM
  17,18-DiHETE: 4.4 nM
  17-HDHA: 22 nM
  18-HEPE: 2.0^* nM
  19(20)-EpDPE: 88^† nM
  19,20-DiHDPE: 100 nM
  20-HDHA: 25^* nM
  20-HEPE: 5.9 nM
  EKODE: 58 nM
  PGD2: 9.6 nM
  PGE1: 6.3 nM
  PGE2: 110 nM
  PGF1α: 3.7 nM
  PGF2α: 40 nM
  TXB2: 3.2^* nM
[2]; < = below LOQ
  5,6-DiHETE: < 0.25 nM
  5-iPF2α: < 1.0 nM
  8(9)-EpETE: 2.8^† nM
  12,13-DiHODE: < 2.0 nM
  13,14-dihydro-15-keto-PGE1: 0.5 nM
  20-HETE: < 2.7 nM
  PGD1: < 0.50 nM
[2]; second listing of PGF2α (r9)
  PGF2α: 40 nM
